These results are taken from patent publication US4518588A, “Process for the preparation of an inclusion complex of N-(1--phenylethyl)-3,3-diphenylpropylamine and the hydrochloride thereof respectively with cyclodextrin” (priority 1981, dated 1985).

Data set [1] can be described thus: Resorption tests on Sartorius SM 16750 Resorption model, diffusion and resorption rate constants. In kind it is in vitro ADME. The settings on record: in vitro; for diffusion constant (Kd) from the intestine: resorption from the intestine. As to the method: (§1) The in vitro tests were justified by the fact that the measurements are much more reproducible than by carrying out the tests in vivo.
The resorption tests were performed on a Sartorius SM 16750 Resorption model, the membranes used were suitable for modelling the resorption from the stomach and from the intestine. On the basis of the test results the diffusion (Kd) and the resorption rate constant (Ki) were calculated for the test substances.

A short description of the next data set: Acute toxicity. The following applies: mouse, in vivo, dose as phendiline active ingredient, 5% Tween 80; for LD50 at 24 h: observation time 24 hours.
Data set [2] is described as follows: Solubility of phendiline hydrochloride in β-cyclodextrin solutions of various concentration. In kind it is physicochemical. The following applies: 37° C.; for solubility thermodynamic at 3 h: water with beta-cyclodextrin, phendiline equivalents; for β-cyclodextrin mmole / phendiline mmole: 3 hours. The protocol: 0.22 g. (0.6 mmole) of phendiline hydrochloride is stirred at 37° C. for 3 hours in 3 ml. of water and in β-cyclodextrin solutions of various concentration by a magnetic stirrer at 150 rot./min rate. The concentration of the dissolved phendiline hydrochloride is determined by spectrophotometry and expressed in phendiline equivalents.

A further data set in a line: Solubility in words. In kind it is physicochemical.
The nature of data set [3]: Determination of dissolved (MG) and resorbed (Mi) active ingredient on Sartorius SM 16751 type model. The class given is in vitro ADME. The following applies: 100. minute; segments of the gastro-intestinal system, in vitro; FIG. 1.
Text: as §1
The dissolution and the resorption are subsequent processes which depend greatly on each other. Under physiological conditions resorption is partially influenced by the pH relations at the place of the resorption and partially by the time spent by the pharmaceutical at the place of the resorption.
The average spent time in each segment of the gastro-intestinal system and the pH values are as follows:
The determination of the dissolved (MG) and the resorbed (Mi) active ingredient was performed on a Sartorius SM 16751 type Lose model [H. Stricker: Pharm. Ind. 33, 157 (1971); H. Sticker: Drugs in Germany 14, 93 (1971)].
The amount of the resorbed phendiline, phendiline-CD-complex as well as phendiline hydrochloride and phendiline-hydrochloride-CD-complex from the gastro-intestinal tract is shown in FIG. 2 where F stands for the resorbed amount of phendiline, F-CD stands for the resorbed amount of phendiline-cyclodextrine-complex, FHCl stands for the resorbed amount of phendiline-hydrochloride and FHCl-CD stands for the resorbed amount of phendiline-hydrochloride-cyclodextrine-complex.

Another data set can be described thus: Thermoanalytical assay. The class given is physicochemical. As to the method:
Thermoanalytical assay of the product according to Example 1.
Phendiline starts to evaporate respectively to decompose at 150° C. and 98% mass change can be observed up to 250° C.

Where [4] appears, read: β-cyclodextrin 15 mg./ml. (13.2 mmole/l.).
Where [5] appears, read: β-cyclodextrin 20 mg./ml. (17.6 mmole/l.).
Where [6] appears, read: β-cyclodextrin 25 mg./ml. (22.0 mmole/l.).
[7] abbreviates: β-cyclodextrin 30 mg./ml. (26.4 mmole/l.).

Several values for one entry are separate records, joined by “and”; a condition that tells them apart may be missing. Equal entries are not always repeated. Where two headings read alike, the source gives them in different places.

As usually defined, the LD50 is the dose expected to kill half of the subjects tested. A low value points to greater toxicity. The thermodynamic solubility is solubility found after equilibrating the solid with the medium. `CC(NCCC(c1ccccc1)c1ccccc1)c1ccccc1.Cl` (stereo not drawn) [phendiline hydrochloride, N-(1-phenylethyl)-3,3-diphenylpropylamine hydrochloride]: in data set [1], the “resorption rate constant (Ki) from the intestine” value came to 0.0049 min⁻¹. Besides, the “diffusion constant (Kd) from the intestine” value in data set [1] was 6.7 × 10^-4 cm^2 min^-1. In the data set “Acute toxicity” (ip, intraperitoneal, observation time 1 hour), the LD50 at 1 h was determined as 81.1 mg/kg. The 50% lethal dose (LD50) at 24 h in “Acute toxicity” (po, per os) was 522 mg/kg. Also, the thermodynamic solubility at 3 h was 4390 µg/mL and 13900 µM in data set [2] (setting [4]); 5950 µg/mL and 18600 µM in data set [2] (setting [5]); 6940 µg/mL and 22000 µM in data set [2] (setting [6]); 7510 µg/mL and 23800 µM in data set [2] (setting [7]). Also, the “β-cyclodextrin mmole / phendiline mmole” value was 0.95 in data set [2] (setting [4]), 0.95 in data set [2] (setting [5]), 1.00 in data set [2] (setting [6]) and 1.10 in data set [2] (setting [7]). Moreover, the solubility in water entry in “Solubility in words” is listed as “extremely poor”.

As for `CC(NCCC(c1ccccc1)c1ccccc1)c1ccccc1` (stereo not drawn) [phendiline, N-(1-phenylethyl)-3,3-diphenylpropylamine], in data set [1], the “resorption rate constant (Ki) from the intestine” value came out at 0.0051 min⁻¹ and the “diffusion constant (Kd) from the intestine” value is listed as 6.9 × 10^-4 cm^2 min^-1. For the same molecule, the amount dissolved in data set [3] came out at 75 mg. In “Acute toxicity” (ip, intraperitoneal), this molecule displayed an LD50 at 24 h of 47.5 mg/kg. Besides, in “Acute toxicity” (po, per os, observation time 72 hours), the LD50 at 72 h was found to be 512 mg/kg. In “Thermoanalytical assay” (thermoanalytical assay), the “temperature at which it starts to evaporate respectively to decompose” value worked out at 150 °C. The molecule also returned a mass change in “Thermoanalytical assay” (up to 250° C.) of 98%. Moreover, the solubility in water entry in “Solubility in words” is given as “very poor”. Moreover, in “Solubility in words” (listed as Phendiline), the solubility in water result is given as “not soluble in water”.

Consider Cyclodextrin, for which the decomposition temperature in “Thermoanalytical assay” (thermoanalytical assay) is 270 °C.

As for β-cyclodextrin, the “temperature of melting with decomposition” value in “Thermoanalytical assay” (thermoanalytical assay) came to 300 °C.
